Values of other authors as cited in US20050004106A1, “Combinations of GABA modulators and anticonvulsants, and atypical antipsychotics” (Pfizer Inc, priority 2003, published 2005).

What was measured:
[1] = in vivo

protein binding: extensive
half-life [1]: 6 to 7 h
SMILES: Cl.O.O=C1Cc2cc(CCN3CCN(c4nsc5ccccc45)CC3)c(Cl)cc2N1 [ziprasidone, 5-[2-[4-(1,2-benzisothiazol-3-yl)piperazin-1-yl]ethyl]-6-chloroindolin-2-one hydrochloride hydrate]
